According to patent US9532962B2, “Medium-chain length fatty acids and glycerides as nephroprotection agents” (priority 2007, dated 2017):
Entries after “also recorded” stand apart in the source; their conditions may differ.

Experiments:
[1] = tested on: C57B1/6 mice; assay: Doxorubicin-induced nephrotoxicity model; format: in vivo; conditions: for histological kidney lesions score at the tubular level induced by doxorubicin / serum urea induced by doxorubicin: oral; for histological kidney lesions score: 10 mg/kg i.v. at day 0; for serum creatinine induced by doxorubicin: FIG. 9; for serum urea induced by doxorubicin: FIG. 10
Protocol: C57B1/6 mice (6-10 week-old) were treated with sodium caprate prophylacticly from day −3 to day 10 or treated therapeutically from day 1 to 10. Nephrotoxicity was induced by an intravenous injection of 10 mg/kg of doxorubicin at day 0, Serum creatinine and urea were monitored at day 4, 7 and 11.

[2] = tested on: 5/6 nephrectomized (Nx) rats; assay: Kidney protection in 5/6 nephrectomized (Nx) rat model; format: in vivo, Wistar rats
Protocol: (§1) Male 6 week-old Wistar rats were subjected to 5/6 nephrectomy or sham operations. Under ketamine anesthesia (60 to 100 mg/kg, i.p.), renal ablation was achieved by removing two-thirds of the left kidney followed by a right unilateral nephrectomy 7 days later. Sham rats underwent exposition of the kidneys and removal of the perirenal fat. Twenty-one days after the first operation, rats were assigned in the study if the serum creatinine was greater than 125 μmol/L indicating a dysfunction of the kidney. Animals that underwent the sham operation were given vehicle (saline) and were used as controls. Nx animals were divided in groups receiving the vehicle or sodium caprate. Saline or sodium caprate was given by gastric gavage once daily for 35 days. Serum creatinine was measured weekly in order to assess the severity of this end-stage renal disease model. Rats were sacrificed at day 63.

[3] = tested on: 5/6 nephrectomized (Nx) rats; assay: Heart protection (blood pressure) in 5/6 nephrectomized (Nx) rat model; format: in vivo; conditions: RTBP 2000, FIG. 8
Protocol: as §1

[4] = prophylactic (pre-doxorubicin) treatment
[5] = therapeutic (post-doxorubicin) treatment

Compound | histological kidney lesions score at the tubular level induced by doxorubicin [1, 4] | protection of kidney against doxorubicin toxicity, histological micrographs ([1]; prophylactic treatment, 400×) | histological kidney lesions score at the tubular level induced by doxorubicin [1, 5] | protection of kidney against doxorubicin toxicity, histological micrographs ([1]; therapeutic treatment) | histological lesions in affected tubular regions (micrographs) ([1]; 10 mg/kg i.v. at day 0, 400×) | histological kidney lesions score ([1]; day 7 and 11, FIG. 11) | histological kidney lesions score ([1]; day 12, FIG. 13) | kidney structure (density, glomerulus and tubular structure), histological micrographs ([2]; 40×, compared to control Nx rats, FIG. 6) | fibrosis and necrosis of the kidney tissue, histological micrographs ([2]; 400×, glomerulus level, FIG. 7) | serum creatinine ([2]; compared to control Nx rats, FIG. 5) | urine creatinine ([2]; day 21 to day 42, FIG. 4) | animals showing reduction of initial serum creatinine concentration ([2]; sodium caprate-treated Nx rats, FIG. 2) [%] | blood pressure [3] | serum creatinine induced by doxorubicin ([1]; prophylactic treatment day -3 to day 10, oral) | serum urea induced by doxorubicin ([1]; prophylactic treatment) | serum creatinine induced by doxorubicin ([1]; therapeutic treatment day 1 to 10, oral) | serum urea induced by doxorubicin ([1]; therapeutic treatment)
CCCCCCCCCC(=O)OCC(COC(=O)CCCCCCCCC)OC(=O)CCCCCCCCC [tricaprin] | reduces the kidney lesions | protects kidney against doxorubicin toxicity | reduces the kidney lesions | protects kidney against doxorubicin toxicity | – | – | – | – | – | – | – | – | – | – | – | – | –
COc1cccc2c1C(=O)c1c(O)c3c(c(O)c1C2=O)C[C@@](O)(C(=O)CO)C[C@@H]3O[C@H]1C[C@H](N)[C@H](O)[C@H](C)O1 [doxorubicin, reference compound] | – | – | – | – | induces kidney cell apoptosis, fibrosis, sclerosis, and accumulation of proteins; also recorded: induces kidney cell apoptosis, fibrosis, sclerosis and accumulation of proteins | induces significant kidney lesions | induces significant kidney lesions | – | – | – | – | – | – | – | – | – | –
CCCCCCCCCC(=O)[O-].[Na+] [sodium caprate] | reduce the kidney lesions | protects kidney against doxorubicin toxicity | reduce the kidney lesions | protects kidney against doxorubicin toxicity | – | – | – | more conserved | reduces fibrosis and necrosis | significant (p=0.00006) decrease | significant (p=0.0002) increase | 80 | significant decrease | inhibits the increase of serum creatinine induced by doxorubicin to a similar level observed in control mice | inhibits the increase of serum urea induced by doxorubicin to a similar level observed in control mice | reduces the serum creatinine level | inhibits the increase of serum urea induced by doxorubicin to a similar level observed in control mice
